From patent US20110046131A1, “PURINES AS PKC-THETA INHIBITORS” (N.V. Organon and Pharmacopeia, LLC, priority 2006, published 2011)

Legend:
Format in all cases: biochemical
PKCθ = molecular target: T1, PKCθ (Homo sapiens, UniProt Q04759); test: Ki Pan Vera (PV) potency for PKCθ; conditions: Ki Pan Vera (PV) of PKCθ
T1 construct: purchased Pan Vera
Protocol: (§1) For Ki Pan Vera (PV) of PKCθ, entries identified with “A” had values below 100 nM; entries identified with “B” had values below 1 μM; and entries identified with “C” had values below 10 μM.

PKC delta = molecular target: T2, PKC delta (Homo sapiens, UniProt Q05655); test: Ki Pan Vera (PV) potency for PKC delta; conditions: Ki Pan Vera (PV) of PKC delta
T2 construct: purchased Pan Vera
Protocol: [The source words this procedure for another target and reports this target under the same test.] as §1

PKC alpha = molecular target: T3, PKC alpha (Homo sapiens, UniProt P17252); test: Ki Pan Vera (PV) potency for PKC alpha; conditions: Ki Pan Vera (PV) of PKC alpha
T3 construct: purchased Pan Vera
Protocol: [The source words this procedure for another target and reports this target under the same test.] as §1

SGK kinase = molecular target: T4, SGK kinase (Homo sapiens, UniProt O00141); test: IC50 for SGK kinase (selectivity); conditions: for IC50: read-out: IC50-SGK1
T4 sequence (O00141 1-431): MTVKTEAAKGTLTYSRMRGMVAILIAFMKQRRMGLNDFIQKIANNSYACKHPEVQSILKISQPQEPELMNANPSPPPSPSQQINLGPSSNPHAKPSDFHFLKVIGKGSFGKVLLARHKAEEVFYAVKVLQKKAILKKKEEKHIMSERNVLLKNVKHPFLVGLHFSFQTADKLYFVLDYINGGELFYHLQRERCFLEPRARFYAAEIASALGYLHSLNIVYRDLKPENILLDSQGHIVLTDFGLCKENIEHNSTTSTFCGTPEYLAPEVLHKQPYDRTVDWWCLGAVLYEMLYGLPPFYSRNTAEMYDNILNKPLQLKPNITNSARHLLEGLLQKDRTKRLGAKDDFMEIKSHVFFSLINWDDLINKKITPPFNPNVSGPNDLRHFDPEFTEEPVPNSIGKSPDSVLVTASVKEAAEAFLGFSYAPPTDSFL
Protocol: Entries identified with “1” had values above 250 nM; entries identified with “2” had values above 1 μM; entries identified with “3” had values above 10 μM.

T1 sequence (Q04759 whole entry): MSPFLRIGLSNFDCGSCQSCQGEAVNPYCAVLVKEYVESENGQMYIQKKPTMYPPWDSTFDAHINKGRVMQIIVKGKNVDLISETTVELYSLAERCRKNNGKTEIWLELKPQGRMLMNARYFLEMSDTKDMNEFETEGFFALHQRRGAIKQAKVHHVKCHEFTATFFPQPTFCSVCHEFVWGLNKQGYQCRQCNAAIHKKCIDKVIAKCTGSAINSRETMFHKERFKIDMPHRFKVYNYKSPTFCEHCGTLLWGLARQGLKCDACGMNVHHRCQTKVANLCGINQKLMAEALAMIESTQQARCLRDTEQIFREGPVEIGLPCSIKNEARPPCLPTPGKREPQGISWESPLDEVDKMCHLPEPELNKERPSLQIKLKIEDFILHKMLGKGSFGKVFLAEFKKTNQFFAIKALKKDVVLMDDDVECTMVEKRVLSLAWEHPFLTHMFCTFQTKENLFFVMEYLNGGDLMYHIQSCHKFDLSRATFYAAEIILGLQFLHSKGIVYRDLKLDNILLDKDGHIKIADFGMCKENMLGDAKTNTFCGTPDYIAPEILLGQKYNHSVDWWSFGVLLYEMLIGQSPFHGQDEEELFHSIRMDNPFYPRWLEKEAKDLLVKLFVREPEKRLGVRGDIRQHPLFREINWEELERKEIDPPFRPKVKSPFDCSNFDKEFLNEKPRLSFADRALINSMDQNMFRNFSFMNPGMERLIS
T2 sequence (Q05655 whole entry): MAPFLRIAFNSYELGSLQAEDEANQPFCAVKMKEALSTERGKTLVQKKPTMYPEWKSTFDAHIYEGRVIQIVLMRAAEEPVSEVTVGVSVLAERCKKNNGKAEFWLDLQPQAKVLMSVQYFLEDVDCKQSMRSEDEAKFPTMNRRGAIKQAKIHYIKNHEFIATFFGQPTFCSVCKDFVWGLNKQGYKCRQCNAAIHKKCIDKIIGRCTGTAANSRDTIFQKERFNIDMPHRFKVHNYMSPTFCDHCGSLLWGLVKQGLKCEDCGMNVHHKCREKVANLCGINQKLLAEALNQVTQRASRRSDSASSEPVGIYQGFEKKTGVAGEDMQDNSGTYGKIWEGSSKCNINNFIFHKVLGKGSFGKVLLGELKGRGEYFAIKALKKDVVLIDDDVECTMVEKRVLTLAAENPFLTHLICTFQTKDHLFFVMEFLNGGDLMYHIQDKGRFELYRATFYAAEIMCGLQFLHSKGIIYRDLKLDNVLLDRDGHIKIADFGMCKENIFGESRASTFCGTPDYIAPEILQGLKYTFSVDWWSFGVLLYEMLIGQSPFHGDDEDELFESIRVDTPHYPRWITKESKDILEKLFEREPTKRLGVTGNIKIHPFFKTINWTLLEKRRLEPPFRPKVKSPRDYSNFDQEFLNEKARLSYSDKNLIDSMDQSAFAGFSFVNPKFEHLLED

Structure (SMILES) | Ki (PKCθ) [nM] | Ki (PKC delta) [nM] | Ki (PKC alpha) [nM] | IC50-SGK1 (SGK kinase) | IC50 (SGK kinase) [nM]
Fc1ccc(CNc2ncc3nc(-c4c(Cl)cccc4Cl)n(C[C@H]4CCNC4)c3n2)cc1F [Compound 121] | < 100 | > 1000 | > 1000 | Inactive | 
NCCCCCCn1c(-c2c(Cl)cccc2Cl)nc2cnc(NCc3ccccc3F)nc21 [Compound 122] | < 1000 | > 1000 | > 10000 | Inactive | 
Fc1ccc(F)c(CNc2ncc3nc(-c4c(F)cccc4Cl)n(C[C@@H]4CCCNC4)c3n2)c1 [Compound 124] | < 1000 | > 1000 | > 1000 |  | > 10000
Fc1ccc(F)c(CNc2ncc3nc(-c4c(Cl)cccc4Cl)n(C[C@H]4CCNC4)c3n2)c1 [Compound 125] | < 1000 | > 1000 | > 1000 | Inactive | 
Fc1cccc(CNc2ncc3nc(-c4c(Cl)cccc4Cl)n(CCC4CCNCC4)c3n2)c1 [Compound 126] | < 1000 | > 1000 | > 1000 |  | > 1000
Fc1cccc(CNc2ncc3nc(-c4c(Cl)cccc4Cl)n(C[C@H]4CCNC4)c3n2)c1 [Compound 127] | < 1000 | > 1000 | > 1000 | Inactive | 
Fc1ccc(CNc2ncc3c(n2)C(C[C@@H]2CCCNC2)C(c2c(F)cccc2Cl)=N3)cc1 (stereo partly drawn) [Compound 128] | < 1000 | > 1000 | > 1000 | Inactive | 
Fc1ccccc1CNc1ncc2c(n1)C(C[C@H]1CCCNC1)C(c1c(Cl)cccc1Cl)=N2 (stereo partly drawn) [Compound 129] | < 1000 | > 1000 | > 1000 | Inactive | 
Fc1ccc(CNc2ncc3c(n2)C(C[C@H]2CCNC2)C(c2c(Cl)cccc2Cl)=N3)cc1 (stereo partly drawn) [Compound 130] | < 1000 | > 1000 | > 1000 | Inactive | 
Fc1ccc(Cl)cc1CNc1ncc2c(n1)C(C[C@H]1CCNC1)C(c1c(Cl)cccc1Cl)=N2 (stereo partly drawn) [Compound 131] | < 1000 | > 1000 | > 1000 | Inactive | 
Clc1cccc(Cl)c1-c1nc2cnc(NCc3ccccc3)nc2n1C[C@H]1CCNC1 [Compound 133] | < 1000 | > 1000 | > 1000 | Inactive | 
Clc1cc(Cl)cc(CNc2ncc3nc(-c4c(Cl)cccc4Cl)n(C[C@@H]4CCCNC4)c3n2)c1 [Compound 134] | < 10000 | > 1000 | > 10000 | Inactive | 
Clc1cccc(CNc2ncc3nc(-c4c(Cl)cccc4Cl)n(C[C@H]4CCNC4)c3n2)c1 [Compound 135] | < 1000 | > 1000 | > 1000 | Inactive | 
Fc1ccc(CNc2ncc3nc(-c4ccccc4Cl)n(C[C@@H]4CCCNC4)c3n2)cc1F [Compound 136] | < 1000 | > 1000 | > 1000 | Inactive | 
C[C@H](Nc1ncc2nc(-c3c(Cl)cccc3Cl)n(CC3CCNC3)c2n1)c1ccccc1F (stereo partly drawn) [Compound 138] | < 1000 | > 1000 | > 1000 | Inactive | 
Clc1cccc(Cl)c1-c1nc2cnc(NCc3ccccc3)nc2n1CCC1CCNCC1 [Compound 141] | < 1000 | > 10000 | > 10000 |  | > 1000
Fc1ccc(CNc2ncc3nc(-c4c(Cl)cccc4Cl)n(CC4CCNC4)c3n2)cc1F (stereo not drawn) [Compound 142] | < 1000 | > 1000 | > 1000 |  | > 10000
NCCN1CCC(n2c(-c3c(Cl)cccc3Cl)nc3cnc(NCc4ccccc4F)nc32)CC1 [Compound 143] | < 1000 | > 1000 | > 1000 | Inactive | 
Fc1ccc(CNc2ncc3nc(-c4c(F)cccc4Cl)n(C[C@@H]4CCCNC4)c3n2)c(F)c1 [Compound 144] | < 1000 | > 1000 | > 1000 | Inactive | 
Fc1cc(F)cc(CNc2ncc3nc(-c4c(Cl)cccc4Cl)n(CCC4CCNCC4)c3n2)c1 [Compound 146] | < 1000 | > 1000 | > 1000 | Inactive | 
Fc1cccc(CNc2ncc3nc(-c4c(Cl)cccc4Cl)n(CC4CCNC4)c3n2)c1 (stereo not drawn) [Compound 147] | < 1000 | > 1000 | > 1000 | Inactive | 
